Assay results: patent US12331018B2, “Pyrrolidine orexin receptor agonists” (Merck Sharp & Dohme LLC, priority 2019, dated 2025)

Target: T1, human OX2R (Homo sapiens, UniProt O43614)
T1 construct: expressed in transfected cells; host or cells: CHO (Chinese hamster ovary) cells, grown under G418 selection
T1 sequence (O43614 1-444): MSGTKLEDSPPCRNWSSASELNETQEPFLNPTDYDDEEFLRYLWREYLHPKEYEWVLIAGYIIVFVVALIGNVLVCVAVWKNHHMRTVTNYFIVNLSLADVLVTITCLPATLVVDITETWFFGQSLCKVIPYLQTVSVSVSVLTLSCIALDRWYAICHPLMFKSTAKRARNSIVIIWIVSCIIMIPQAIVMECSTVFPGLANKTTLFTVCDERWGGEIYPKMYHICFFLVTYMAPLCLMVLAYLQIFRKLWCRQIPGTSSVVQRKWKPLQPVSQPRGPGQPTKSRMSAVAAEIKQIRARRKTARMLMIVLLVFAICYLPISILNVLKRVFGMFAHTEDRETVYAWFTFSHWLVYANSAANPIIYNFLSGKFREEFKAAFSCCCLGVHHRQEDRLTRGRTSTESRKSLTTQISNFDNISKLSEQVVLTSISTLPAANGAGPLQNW
Experiment: IPOne (IP-1 accumulation) assay in CHO cells expressing human OX2R
Format: cell-based
Settings: for EC50: read-out: OX2R Potency, EC50; for Emax, % of reference agonist: OX2R, percentage of sample raw value/mean max effect (reference compound at 1 uM with 100% activity)
Description: The utility of the compounds in accordance with the present invention as orexin receptor OX1R and/or OX2R agonists may be readily determined without undue experimentation by methodology well known in the art. Both the OX1R and/or OX2R G-coupled protein receptors (GPCRs) couple through the Gaq signaling pathway, which ultimately promotes calcium mobilization via inositol triphosphate (IP3) production. The half-life of IP-3 is relatively short, being rapidly metabolized to inositol monophosphate (IP-1), which can be readily detected using a commercially available assay kit (IP-One; Cisbio; cat #621PAPEC) coupled with a cell line expressing the target receptor(s) of interest. The utility of the compounds in accordance with the present invention as orexin receptor OX1R and/or OX2R agonists may be determined utilizing this assay.
In a typical experiment, the OX1 and OX2 receptor agonist activity is determined in accordance with the following general experimental method. Chinese hamster ovary (CHO) cells expressing human OX1R and/or the human OX2R were grown in Iscove's modified DMEM containing glutaMAX™, 1% G418, 100 U/mL penicillin, 100 μg/mL streptomycin and 10% heat-inactivated qualified fetal bovine serum (FBS). The OX2R cells were seeded at 10,000 cells/well/50 μL and the OX1R cells were seeded at 20,000 cells/well/50 μL into 384-well white tissue culture plates (Greiner; cat #781080). All cell/media reagents were from GIBCO-Invitrogen Corp. The seeded cell plate(s) were incubated at 37° C. with 5% CO2 and 85% humidity for 20-24 hours. On the day of the assay, assay-ready compound plates were prepared using an acoustic liquid handler (ECHO; Labcyte), which dispensed sufficient volume of test compound stock (10 mM in DMSO) or 100% DMSO to prepare 10 point, ½-log dilutions in a final volume of 202.5 nL/well in all test wells of a 384-well diamond plate (Labcyte). Following completion of assay-ready plates, importantly, the next three steps were performed with minimal delay: 1) 20 μl of 1× stimulation buffer was added to the compound plate using a Multidrop Combi (small cassette, Thermo Fisher Scientific cat #24073290); 2) culture medium was removed from the cell plate using the Bluewasher plate washer (gentle spin; BlueCatBio); 3) 14 μl of compound/stimulation buffer mixture was added to the cell plate using a Bravo liquid handler (Agilent) prior to incubating cell plates at 37° C. with 5% CO2 and 85% humidity for 1 or 2 hours (OX1R and OX2R, respectively). During this incubation, IP-one detection reagents were prepared (38:1:1 lysis buffer:D2:AB-cryptate reagents). Six μL of mixed detection reagents were added to the cell plate using a Multidrop Combi (small cassette, Thermo Fisher Scientific cat #24073290) and incubated 60 minutes at room temperature in the dark. Fluorescence signal was detected using an Envision plate reader (Perkin Elmer) [LANCE/DELFIA Dual Enh (Em: APC 665; Ex: Cy5 620)].
For each compound, data were fit to a four parameter logistic fit (ActivityBase software) and the EC50 was reported as the inflection point of the resulting curve. Percent effect for each test compound was determined as the percentage of sample raw value/mean max effect, where the mean max effect was derived from the mean raw value of 32 control wells per assay plate (using Orexin A (cat #003-30) at 1 μM for human OX1R and a reference compound at 1 uM with 100% activity previously established by comparison to Orexin A for human OX2R). The intrinsic orexin receptor agonist activity of a compound which may be used in the present invention may be determined by these assays.

[1] = CHO cells expressing human OX2R, IP-One assay, 2 hours incubation, four parameter logistic fit

Row | Compound | EC50 [1] [µM] | Emax, % of reference agonist [%] | OX2R Potency, EC50 (nM) [1]
1 | CS(=O)(=O)N[C@H]1CCN(C(=O)CC(F)(F)F)[C@H]1CO[C@H]1CC[C@@H](c2ccccc2)CC1 (relative stereo) [Example 20, N-((CIS)-2-((((CIS)-4-phenylcyclohexyl)oxy)methyl)-1-(3,3,3-trifluoropropanoyl)pyrrolidin-3-yl)methanesulfonamide] | 1.01 | 96.4 | –
2 | CS(=O)(=O)N[C@H]1CCN(C(=O)C2CC2)C1COC1CCC(c2ccccc2)CC1 (single isomer, unassigned) [Example 26] | – | 17.1 | INACTIVE
3 | CS(=O)(=O)N[C@H]1CCN(C(=O)OCC(F)F)[C@H]1CO[C@H]1CC[C@@H](c2ccccc2)CC1 (relative stereo) [Example 23, 2,2-difluoroethyl (CIS)-3-(methylsulfonamido)-2-((((CIS)-4-phenylcyclohexyl)oxy)methyl)-pyrrolidine-1-carboxylate] | 0.0596 | 101.3 | –
4 | CS(=O)(=O)N[C@H]1CCN(C(=O)CO)[C@H]1CO[C@H]1CC[C@@H](c2ccccc2)CC1 (relative stereo) [Example 25, N-((CIS)-1-(2-hydroxyacetyl)-2-((((CIS)-4-phenylcyclohexyl)oxy)methyl)pyrrolidin-3-yl)methanesulfonamide] | 0.361 | 103.3 | –
5 | CC(C)OC(=O)N1CC[C@@H](NS(C)(=O)=O)[C@H]1CO[C@H]1CC[C@@H](c2ccccc2)CC1 (relative stereo) [Example 5, isopropyl (CIS)-3-(methylsulfonamido)-2-((((CIS)-4-phenylcyclohexyl)oxy)methyl) pyrrolidine-1-carboxylate] | 2.63 | 92.8 | –

Continued by falling EC50 [1], values first:

Row | EC50 [1] [µM] | Emax, % of reference agonist [%] | OX2R Potency, EC50 (nM) [1] | Compound
6 | 0.361 | 98.8 | – | CC(=O)OCC(=O)N1CC[C@H](NS(C)(=O)=O)[C@@H]1CO[C@H]1CC[C@@H](c2ccccc2)CC1 (relative stereo) [Example 7, 2-((CIS)-3-(methylsulfonamido)-2-((((CIS)-4-phenylcyclohexyl)oxy)methyl)pyrrolidin-1-yl)-2-oxoethyl acetate]
7 | 0.328 | 96.4 | – | COC(=O)N1CC[C@H](NS(C)(=O)=O)[C@@H]1CO[C@H]1CC[C@@H](c2ccccc2)CC1 (relative stereo) [Example 2, methyl (CIS)-3-(methylsulfonamido)-2-((((CIS)-4-phenylcyclohexyl)oxy)-methyl)pyrrolidine-1-carboxylate]
8 | 0.299 | 99.8 | – | COC(=O)N1CC[C@@H](NS(=O)(=O)C2CC2)[C@H]1CO[C@H]1CC[C@@H](c2ccccc2)CC1 (relative stereo) [Example 15, methyl (CIS)-3-(cyclopropanesulfonamido)-2-((((CIS)-4-phenylcyclohexyl)oxy)methyl) pyrrolidine-1-carboxylate]
9 | 0.272 | 101.3 | – | CC(=O)N1CC[C@H](NS(C)(=O)=O)[C@@H]1CO[C@H]1CC[C@@H](c2ccccc2)CC1 (relative stereo) [Example 3, N-((CIS)-1-acetyl-2-((((CIS)-4-phenylcyclohexyl)oxy)methyl)pyrrolidin-3-yl)methanesulfonamide]
10 | 0.177 | 100.7 | – | COC(=O)N1CC[C@@H](NS(=O)(=O)CF)[C@H]1CO[C@H]1CC[C@@H](c2ccccc2)CC1 (relative stereo) [Example 16, methyl (CIS)-3-((fluoromethyl)sulfonamido)-2-((((CIS)-4-phenylcyclohexyl)oxy)methyl) pyrrolidine-1-carboxylate]
11 | 0.0364 | 99.2 | – | CC(C)NC(=O)N1CC[C@@H](NS(C)(=O)=O)[C@H]1CO[C@H]1CC[C@@H](c2ccccc2)CC1 (relative stereo) [Example 9, (CIS)-N-isopropyl-3-(methylsulfonamido)-2-((((CIS)-4-phenylcyclohexyl)oxy)methyl) pyrrolidine-1-carboxamide]
